Laboratory results published in ChEMBL document CHEMBL3228046, “A structural modification study of procarbazine” (1979).
Activity calls are given as the source filed them. The calls are words filed in the database; no cut-off is given here.

Key:
P388 [1] = test: Antineoplastic activity against mouse P388 cells allografted in BDF1 mouse administered qd for 1 to 9 days starting 24 hrs after tumor cell implantation; assay type: functional, cell-based
KB = test: Antineoplastic activity against human KB cells; assay type: functional, cell-based
L1210 [2] = test: Antineoplastic activity against mouse L1210 cells allografted in BDF1 mouse administered qd for 1 to 9 days starting 24 hrs after tumor cell implantation; assay type: functional, cell-based
P388 [3] = test: Antineoplastic activity against mouse P388 cells allografted in BDF1 mouse at 800 mg/kg administered qd for 1 to 9 days starting 24 hrs after tumor cell implantation relative to control; assay type: functional
L1210 [4] = test: Antineoplastic activity against mouse L1210 cells allografted in BDF1 mouse at 50 mg/kg administered qd for 1 to 9 days starting 24 hrs after tumor cell implantation relative to control; assay type: functional

| Compound | Activity (P388 [1]) | Activity (KB) | Activity (L1210 [2]) | T/C (P388 [3]) | T/C (L1210 [4]) |
| --- | --- | --- | --- | --- | --- |
| CNOCc1ccc(C(=O)NC(C)C)cc1 | inactive | inactive | inactive |  |  |
| CO/[N+](=C\c1ccccc1)Cc1ccc(C(=O)NC(C)C)cc1 | inactive | inactive | inactive |  |  |
| CNC(=S)Nc1ccc(C(=O)NC(C)C)cc1 | inactive | inactive | inactive |  |  |
| CNNCc1c[nH]c(=O)[nH]c1=O | inactive | inactive | inactive |  |  |
| CNC(=S)NCc1ccc(C(=O)NC(C)C)cc1 | inactive | inactive | inactive |  |  |
| CC(C)NC(=O)c1ccc(CONC(=O)OCc2ccccc2)cc1 | inactive | inactive | inactive |  |  |
| CC(C)NC(=O)c1ccc(CBr)cc1 |  | Active |  |  |  |
| CC(C)NC(=O)c1ccc(C/[N+]([O-])=C/c2ccccc2)cc1 |  |  |  | 153 |  |
| CNC(=O)NCc1ccc(C(=O)NC(C)C)cc1 | inactive | inactive | inactive |  |  |
| CNNCc1ccc(/C=N/NC(N)=S)cc1 | inactive | inactive | inactive |  |  |
| CC(C)NC(=O)c1ccc(CON(C)C(=O)OCc2ccccc2)cc1 | inactive | inactive | inactive |  |  |
| CNC(=O)Nc1ccc(C(=O)NC(C)C)cc1 |  |  |  |  | 132 |
| CONCc1ccc(C(=O)NC(C)C)cc1 | inactive | inactive | inactive |  |  |
